Legend:
[1] = system: DU145 Prostate tumor cells; assay: Amino acid uptake assay in vitro, DU145 tumor cells ± transporter inhibitors; assay type: cell-based, human; settings: 30 minutes incubation
Experimental: (§1) The tumor cells were initially grown as monolayers in T-flasks containing Dulbecco's Modified Eagle's Medium (DMEM) under humidified incubator conditions (37° C., 5% CO2/95% air). The growth media were supplemented with 10% fetal calf serum and antibiotics (10,000 units/ml penicillin and 10 mg/ml streptomycin). The growth media were replaced three times per week, and the cells were passaged so the cells would reach confluency in a week's time.
(§2) When the monolayers were confluent, cells were prepared for experimentation in the following manner. Growth media were removed from the T-flask, and the monolayer cells were exposed to 1× trypsin:EDTA for ˜1 minute to weaken the protein attachments between the cells and the flask. The flask was then slapped, causing the cells to release. Supplemented media were added to inhibit the proteolytic action of the trypsin, and the cells were aspirated through an 18 Ga needle until they were monodispersed. A sample of the cells was counted under a microscope using a hemocytometer, and the live/dead fraction estimated through trypan blue staining (>98% viability). The remainder of the cells was placed into a centrifuge tube, centrifuged at 75×g for 5 minutes, and the supernatant was removed. The cells were then resuspended in amino-acid/serum-free DMEM salts.
(§3) In this study, approximately 4.55×10^5 cells were exposed to either [^18F]10 (anti-FACBC) or [^18F]15 (syn-FACBC, 5 μCi) in 3 ml of amino acid free media ±transporter inhibitors (10 mM) for 30 minutes under incubator conditions in 12×75 mm glass vials. Each assay condition was performed in duplicate. After incubation, cells were twice centrifuged (75×g for 5 minutes) and rinsed with ice-cold amino-acid/serum-free DMEM salts to remove residual activity in the supernatant. The vials were placed in a Packard Cobra II Auto-Gamma counter, the raw counts decay corrected, and the activity per cell number determined. The data from these studies (expressed as percent uptake relative to control) were graphed using Excel, with statistical comparisons between the groups analyzed using a 1-way ANOVA (GraphPad Prism software package).
(§4) To test the hypothesis that [^18F]10 and [^18F]15 enter cells predominantly via the L-type amino acid transport system, amino acid uptake assays using cultured 9L gliosarcoma and a variety of human cancer cell lines in the presence and absence of two well-described inhibitors of amino acid transport were performed. […] The A- and L-type amino acid transport systems have been implicated in the in vivo uptake of radiolabeled amino acids used for tumor imaging.

[2] = system: SKOV3 Ovarian tumor cells; assay: Amino acid uptake assay in vitro, SKOV3 tumor cells ± transporter inhibitors; assay type: cell-based, human; settings: 30 minutes incubation
Experimental: as §1, §2, §3, §4

U87 Glioma tumor cells = assay: Amino acid uptake assay in vitro, U87 tumor cells ± transporter inhibitors; assay type: cell-based, human; settings: 30 minutes incubation
Experimental: as §1, §2, §3, §4

A549 Lung tumor cells = assay: Amino acid uptake assay in vitro, A549 tumor cells ± transporter inhibitors; assay type: cell-based, human; settings: 30 minutes incubation
Experimental: as §1, §2, §3, §4

[3] = system: MB 468 Breast tumor cells; assay: Amino acid uptake assay in vitro, MB 468 tumor cells ± transporter inhibitors; assay type: cell-based, human; settings: 30 minutes incubation
Experimental: as §1, §2, §3, §4

[4] = system: 9L gliosarcoma cells and a variety of human cancer cell lines; assay: Amino acid uptake assay in vitro as summarised in text; assay type: cell-based, rat; human; settings: for intracellular accumulation: absence of inhibitors, after 30 minutes of incubation; for amino acid transport system used for cell entry: based on inhibition of uptake in the presence of BCH
Experimental: as §1, §2, §3, §4

[5] = system: 9L gliosarcoma tumor / contralateral normal brain; assay: Rodent biodistribution in rats implanted intracranially with 9L gliosarcoma cells; assay type: in vivo, male Fischer rats; settings: for retention of radioactivity in tumor tissue: 60 minutes after intravenous injection, intracranial 9L tumor; for Ratios of tumor uptake to normal brain uptake: at 60 and 120 minutes after intravenous injection, printed as x:1
Experimental: All animal experiments were carried out under humane conditions and were approved by the Institutional Animal Use and Care Committee (IUCAC) at Emory University. Rat 9L gliosarcoma cells were implanted into the brains of male Fischer rats. Briefly, anesthetized rats placed in a stereotactic head holder were injected with a suspension of 4×10^4 rat 9L gliosarcoma cells (1×10^7 per mL) in a location 3 mm right of midline and 1 mm anterior to the bregma at a depth of 5 mm deep to the outer table. The injection was performed over the course of 2 minutes, and the needle was withdrawn over the course of 1 minute to minimize the backflow of tumor cells. The burr hole and scalp incision were closed, and the animals were returned to their original colony after recovering from the procedure. Intracranial tumors developed that produced weight loss, apathy and hunched posture in the tumor-bearing rats, and the animals were used at 17-19 days after implantation. Of the 30 animals implanted with tumor cells, 25 developed tumors visible to the naked eye upon dissection and were used in the study. FIGS. 1-3 show the results of these studies.
The tissue distribution of radioactivity was determined in 16 normal male Fischer 344 rats (200-250 g) after intravenous injection of ˜85 μCi of [^18F]10 or [^18F]15 in 0.3 mL of sterile water. The animals were allowed food and water ad libitum before the experiment. The tail vein injections were performed in awake animals using a RTV-190 rodent restraint device (Braintree Scientific) to avoid mortality accompanying anesthesia in the presence of an intracranial mass. Groups of four rats were killed at 5 minutes, 30 minutes, 60 minutes and 120 minutes after injection of the dose. The animals were dissected, and selected tissues were weighed and counted along with dose standards in a Packard Cobra II Auto-Gamma Counter. The raw counts were decay corrected, and the counts were normalized as the percent of total injected dose per gram of tissue (% ID/g). A comparison of the uptake of activity in tumor tissue, […] at each time point was analyzed using a 1-way ANOVA (GraphPad Prism software package). FIGS. 1-3 below show the results of these studies.

SMILES	Uptake in tumor cells expressed as percent uptake relative to control ([1]; DU145, BCH 10 mM)	Uptake in tumor cells expressed as percent uptake relative to control ([1]; DU145, MeAIB 10 mM)	Uptake in tumor cells expressed as percent uptake relative to control ([1]; DU145, no inhibitor)	Uptake in tumor cells expressed as percent uptake relative to control ([2]; SKOV3, BCH 10 mM)	Uptake in tumor cells expressed as percent uptake relative to control ([2]; SKOV3, MeAIB 10 mM)	Uptake in tumor cells expressed as percent uptake relative to control ([2]; SKOV3, no inhibitor)	Uptake in tumor cells expressed as percent uptake relative to control (U87 Glioma tumor cells; U87, BCH 10 mM)	Uptake in tumor cells expressed as percent uptake relative to control (U87 Glioma tumor cells; U87, MeAIB 10 mM)	Uptake in tumor cells expressed as percent uptake relative to control (U87 Glioma tumor cells; U87, no inhibitor)	Uptake in tumor cells expressed as percent uptake relative to control (A549 Lung tumor cells; A549, BCH 10 mM)	Uptake in tumor cells expressed as percent uptake relative to control (A549 Lung tumor cells; A549, MeAIB 10 mM)	Uptake in tumor cells expressed as percent uptake relative to control (A549 Lung tumor cells; A549, no inhibitor)	Uptake in tumor cells expressed as percent uptake relative to control ([3]; MB 468, BCH 10 mM)	Uptake in tumor cells expressed as percent uptake relative to control ([3]; MB 468, MeAIB 10 mM)	Uptake in tumor cells expressed as percent uptake relative to control ([3]; MB 468, no inhibitor)	intracellular accumulation [4]	amino acid transport system used for cell entry [4]	retention of radioactivity in tumor tissue [5]	Ratios of tumor uptake to normal brain uptake [5]
N[C@]1(C(=O)O)C[C@H]([18F])C1 [Syn-[^18F]FACBC, syn-[^18F]1-amino-3-fluorocyclobutane-1-carboxylic acid]	9.11%	17.16%	20.27%	5.87%	8.48%	11.67%	5.00%	14.80%	24.77%	3.85%	9.61%	11.91%	10.93%	28.25%	33.53%	0.50 % of the initial dose per million cells	substrates for the L-type amino acid transport system	high	5.3
NC1(C(=O)O)CC([18F])C1 (stereo not drawn) [Anti-[^18F]FACBC, trans-(anti-) 1-amino-3-[^18F]fluorocyclobutane-1-carboxylic acid]	4.16%	13.90%	16.06%	1.44%	6.39%	4.68%	1.51%	3.45%	3.41%	2.69%	11.02%	12.17%	4.43%	14.80%	15.51%	0.43 % of the initial dose per million cells	substrates for the L-type amino acid transport system	high	6.5
